Measurements: patent US20100104669A1, “Method for preparing an aqueous solution containing triterpenic acid, aqueous solution containing triterpenic acid, and use thereof” (priority 2008, published 2010)

What was measured:
[1] = triterpenic acid content of basic aqueous solution (trisodium phosphate extraction, Example 1); assay type: physicochemical; details: water with trisodium phosphate, extracted at 120° C. and >2 bar, cooled to room temperature, filtered through 0.22 μm filter
Procedure: Dried annual shoots of mistletoe were extracted with n-heptane at 120° C. and >2 bar pressure. The precipitate obtained upon cooling of the extraction agent was composed of more than 60% oleanolic acid and more than 3% betulinic acid. The triterpenic acid-rich powder thus obtained was extracted with water in the presence of trisodium phosphate at 120° C. and >2 bar pressure to produce a supersaturated basic solution.
The basic triterpenoid-rich solution, cooled to room temperature and filtered through a 0.22 μm filter, contained more than 80 μg/mL oleanolic acid and more than 8 μg/mL betulinic acid. The basic solution thus prepared was then adjusted to pH 7.4 using an aqueous phosphoric acid solution, in the presence of 1.6 μg/mL polysaccharides which had been obtained from mistletoe berries. The extent of dilution and the solvent quantities were selected in such a way that the salt concentration of the neutralized triterpenic acid-rich solution was between 5 and 140 mM.

[2] = triterpenic acid content of basic aqueous solution with cyclodextrins (Example 4); assay type: physicochemical; details: water with trisodium phosphate (10 mM) and 2 mg/mL cyclodextrins, 120° C. and >2 bar
Procedure: The triterpenoid-rich powder described in Example 1 was extracted with water in the presence of trisodium phosphate (10 mM) and 2 mg/mL cyclodextrins at 120° C. and >2 bar.
The basic triterpenic acid-rich solution contained more than 100 μg/mL oleanolic acid and more than 8 μg/mL betulinic acid. The basic solution thus prepared was then adjusted to pH 7.4 using an aqueous phosphoric acid solution. The extent of dilution and the solvent quantities were selected in such away that the salt concentration of the neutralized triterpenic acid-rich solution was between 5 and 140 mM.

CC1(C)CC[C@]2(C(=O)O)CC[C@]3(C)C(=CC[C@@H]4[C@@]5(C)CC[C@H](O)C(C)(C)[C@@H]5CC[C@]43C)[C@@H]2C1 [oleanolic acid]
content in basic triterpenoid-rich solution [1]: more than 80 μg/mL
content in basic triterpenic acid-rich solution [2]: more than 100 μg/mL
